Measurements reported in ChEMBL document CHEMBL4725315, “Structure-guided optimization of a novel class of ASK1 inhibitors with increased sp character and an exquisite selectivity profile” (Bioorg Med Chem Lett, 2020).
≈ marks a conversion by molar mass, not a printed value. Blank lines part the entries; values can stand above or below the compound they belong to.

How the values were obtained:
[1] = target: T1, Mitogen-activated protein kinase kinase kinase 5 (Homo sapiens, UniProt Q99683); assay: Inhibition of ASK1 (unknown origin)
T1 sequence (Q99683 whole entry): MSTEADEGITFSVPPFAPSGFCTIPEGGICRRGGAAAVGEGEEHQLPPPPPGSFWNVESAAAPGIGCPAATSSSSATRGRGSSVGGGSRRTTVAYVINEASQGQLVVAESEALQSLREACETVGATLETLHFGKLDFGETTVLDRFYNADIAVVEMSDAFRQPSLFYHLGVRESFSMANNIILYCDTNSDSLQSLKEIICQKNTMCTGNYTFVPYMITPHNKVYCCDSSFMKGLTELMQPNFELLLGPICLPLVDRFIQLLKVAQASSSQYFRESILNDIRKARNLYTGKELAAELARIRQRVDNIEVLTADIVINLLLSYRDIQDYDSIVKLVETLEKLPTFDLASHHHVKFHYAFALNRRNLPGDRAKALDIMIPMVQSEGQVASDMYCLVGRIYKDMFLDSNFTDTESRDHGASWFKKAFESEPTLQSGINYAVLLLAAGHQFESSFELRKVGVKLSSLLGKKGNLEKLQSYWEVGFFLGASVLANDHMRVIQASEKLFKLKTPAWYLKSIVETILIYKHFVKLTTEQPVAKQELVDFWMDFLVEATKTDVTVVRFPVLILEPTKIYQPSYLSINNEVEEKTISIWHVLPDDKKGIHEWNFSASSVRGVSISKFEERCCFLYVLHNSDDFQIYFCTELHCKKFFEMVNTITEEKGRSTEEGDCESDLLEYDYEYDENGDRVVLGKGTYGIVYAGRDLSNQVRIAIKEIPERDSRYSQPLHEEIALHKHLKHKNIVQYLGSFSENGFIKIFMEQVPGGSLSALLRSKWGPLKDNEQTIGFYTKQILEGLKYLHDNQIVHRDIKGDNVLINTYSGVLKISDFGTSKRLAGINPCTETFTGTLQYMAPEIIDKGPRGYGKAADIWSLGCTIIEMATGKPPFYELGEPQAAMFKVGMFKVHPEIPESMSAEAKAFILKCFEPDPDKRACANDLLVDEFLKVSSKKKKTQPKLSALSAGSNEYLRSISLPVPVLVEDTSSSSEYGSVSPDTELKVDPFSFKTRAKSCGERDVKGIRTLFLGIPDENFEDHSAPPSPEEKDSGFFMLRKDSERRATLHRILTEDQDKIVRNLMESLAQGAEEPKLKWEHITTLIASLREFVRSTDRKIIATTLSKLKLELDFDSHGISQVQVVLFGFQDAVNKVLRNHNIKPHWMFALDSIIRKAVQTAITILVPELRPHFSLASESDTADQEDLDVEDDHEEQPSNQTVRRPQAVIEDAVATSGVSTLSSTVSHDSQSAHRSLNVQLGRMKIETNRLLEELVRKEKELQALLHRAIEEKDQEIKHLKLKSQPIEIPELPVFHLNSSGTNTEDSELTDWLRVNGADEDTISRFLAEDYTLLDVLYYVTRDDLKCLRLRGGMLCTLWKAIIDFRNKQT

MAP kinase p38 = MAP kinase p38 (Homo sapiens, UniProt O15264+Q15759+Q16539+P53778); assay: Inhibition of p38 (unknown origin); assay type: protein assay
[2] = target: Epidermal growth factor receptor (Homo sapiens, UniProt P00533); assay: Inhibition of EGFR (unknown origin)
Chain of Epidermal growth factor receptor (P00533 whole entry): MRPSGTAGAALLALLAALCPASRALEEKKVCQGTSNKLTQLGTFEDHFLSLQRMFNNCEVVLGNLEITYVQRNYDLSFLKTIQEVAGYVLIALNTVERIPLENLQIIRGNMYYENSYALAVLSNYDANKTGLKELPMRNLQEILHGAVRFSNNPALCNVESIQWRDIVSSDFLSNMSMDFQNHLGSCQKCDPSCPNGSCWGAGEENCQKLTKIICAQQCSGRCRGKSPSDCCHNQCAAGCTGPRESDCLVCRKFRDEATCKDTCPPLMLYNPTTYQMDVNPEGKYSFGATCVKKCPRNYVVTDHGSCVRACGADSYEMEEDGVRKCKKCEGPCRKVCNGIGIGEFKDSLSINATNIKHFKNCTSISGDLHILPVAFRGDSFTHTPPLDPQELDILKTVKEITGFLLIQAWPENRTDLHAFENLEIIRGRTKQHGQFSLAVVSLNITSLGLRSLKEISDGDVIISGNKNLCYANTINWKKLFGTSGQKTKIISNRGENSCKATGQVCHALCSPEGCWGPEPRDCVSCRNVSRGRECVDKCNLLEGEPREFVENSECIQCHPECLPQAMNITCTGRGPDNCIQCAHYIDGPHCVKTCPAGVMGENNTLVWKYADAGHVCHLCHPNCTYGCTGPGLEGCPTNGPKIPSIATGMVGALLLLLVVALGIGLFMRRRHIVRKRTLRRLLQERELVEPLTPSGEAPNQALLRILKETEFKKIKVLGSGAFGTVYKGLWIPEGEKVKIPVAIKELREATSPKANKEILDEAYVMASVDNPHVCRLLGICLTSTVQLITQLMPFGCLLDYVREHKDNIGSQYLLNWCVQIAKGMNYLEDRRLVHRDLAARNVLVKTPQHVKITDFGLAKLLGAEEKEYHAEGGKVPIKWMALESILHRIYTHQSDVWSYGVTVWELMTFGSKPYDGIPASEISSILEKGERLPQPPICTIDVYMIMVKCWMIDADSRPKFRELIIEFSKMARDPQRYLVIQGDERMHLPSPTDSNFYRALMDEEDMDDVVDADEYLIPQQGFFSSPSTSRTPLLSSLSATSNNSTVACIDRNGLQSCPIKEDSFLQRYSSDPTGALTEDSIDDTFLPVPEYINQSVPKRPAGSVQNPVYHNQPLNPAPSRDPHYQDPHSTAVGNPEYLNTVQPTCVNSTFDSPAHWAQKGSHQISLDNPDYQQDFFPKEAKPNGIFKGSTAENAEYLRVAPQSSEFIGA

[3] = target: T2, Receptor tyrosine-protein kinase erbB-4 (Homo sapiens, UniProt Q15303); assay: Inhibition of HER4 (unknown origin)
T2 sequence (Q15303 whole entry): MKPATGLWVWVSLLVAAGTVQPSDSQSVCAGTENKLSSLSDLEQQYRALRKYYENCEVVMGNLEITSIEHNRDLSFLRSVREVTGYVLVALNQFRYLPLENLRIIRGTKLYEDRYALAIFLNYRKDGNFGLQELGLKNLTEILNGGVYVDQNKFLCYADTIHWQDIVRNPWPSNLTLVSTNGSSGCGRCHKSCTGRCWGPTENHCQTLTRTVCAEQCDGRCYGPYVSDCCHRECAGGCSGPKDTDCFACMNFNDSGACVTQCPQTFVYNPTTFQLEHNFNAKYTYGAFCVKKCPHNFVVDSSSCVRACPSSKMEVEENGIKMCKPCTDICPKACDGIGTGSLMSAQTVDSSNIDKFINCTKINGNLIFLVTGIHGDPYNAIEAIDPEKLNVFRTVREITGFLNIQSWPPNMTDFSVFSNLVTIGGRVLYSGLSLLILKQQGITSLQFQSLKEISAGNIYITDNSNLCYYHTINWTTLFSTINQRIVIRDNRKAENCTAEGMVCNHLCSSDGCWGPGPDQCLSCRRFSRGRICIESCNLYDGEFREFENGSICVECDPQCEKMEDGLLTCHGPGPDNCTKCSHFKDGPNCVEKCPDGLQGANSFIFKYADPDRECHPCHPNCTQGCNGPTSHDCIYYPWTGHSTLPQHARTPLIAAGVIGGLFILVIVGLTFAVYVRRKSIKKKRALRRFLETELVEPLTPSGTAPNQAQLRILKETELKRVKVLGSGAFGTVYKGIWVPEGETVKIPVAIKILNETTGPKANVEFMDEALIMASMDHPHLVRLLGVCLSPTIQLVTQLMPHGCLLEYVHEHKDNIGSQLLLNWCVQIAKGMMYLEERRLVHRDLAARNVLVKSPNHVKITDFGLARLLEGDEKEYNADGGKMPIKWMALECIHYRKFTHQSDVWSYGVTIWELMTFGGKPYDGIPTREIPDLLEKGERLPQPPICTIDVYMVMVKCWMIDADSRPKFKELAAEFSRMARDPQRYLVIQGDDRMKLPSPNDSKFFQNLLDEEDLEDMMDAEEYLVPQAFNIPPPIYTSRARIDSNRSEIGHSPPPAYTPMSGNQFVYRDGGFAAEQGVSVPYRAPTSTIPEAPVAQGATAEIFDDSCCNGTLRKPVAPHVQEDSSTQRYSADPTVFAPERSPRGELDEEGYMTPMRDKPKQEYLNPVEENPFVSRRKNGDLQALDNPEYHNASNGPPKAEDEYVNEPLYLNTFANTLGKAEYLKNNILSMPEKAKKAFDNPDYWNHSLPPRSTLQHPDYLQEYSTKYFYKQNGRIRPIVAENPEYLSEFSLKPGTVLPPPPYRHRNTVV

[4] = target: Tyrosine-protein kinase Mer (Homo sapiens, UniProt Q12866); assay: Inhibition of MER (unknown origin)
Chain of Tyrosine-protein kinase Mer (Q12866 whole entry): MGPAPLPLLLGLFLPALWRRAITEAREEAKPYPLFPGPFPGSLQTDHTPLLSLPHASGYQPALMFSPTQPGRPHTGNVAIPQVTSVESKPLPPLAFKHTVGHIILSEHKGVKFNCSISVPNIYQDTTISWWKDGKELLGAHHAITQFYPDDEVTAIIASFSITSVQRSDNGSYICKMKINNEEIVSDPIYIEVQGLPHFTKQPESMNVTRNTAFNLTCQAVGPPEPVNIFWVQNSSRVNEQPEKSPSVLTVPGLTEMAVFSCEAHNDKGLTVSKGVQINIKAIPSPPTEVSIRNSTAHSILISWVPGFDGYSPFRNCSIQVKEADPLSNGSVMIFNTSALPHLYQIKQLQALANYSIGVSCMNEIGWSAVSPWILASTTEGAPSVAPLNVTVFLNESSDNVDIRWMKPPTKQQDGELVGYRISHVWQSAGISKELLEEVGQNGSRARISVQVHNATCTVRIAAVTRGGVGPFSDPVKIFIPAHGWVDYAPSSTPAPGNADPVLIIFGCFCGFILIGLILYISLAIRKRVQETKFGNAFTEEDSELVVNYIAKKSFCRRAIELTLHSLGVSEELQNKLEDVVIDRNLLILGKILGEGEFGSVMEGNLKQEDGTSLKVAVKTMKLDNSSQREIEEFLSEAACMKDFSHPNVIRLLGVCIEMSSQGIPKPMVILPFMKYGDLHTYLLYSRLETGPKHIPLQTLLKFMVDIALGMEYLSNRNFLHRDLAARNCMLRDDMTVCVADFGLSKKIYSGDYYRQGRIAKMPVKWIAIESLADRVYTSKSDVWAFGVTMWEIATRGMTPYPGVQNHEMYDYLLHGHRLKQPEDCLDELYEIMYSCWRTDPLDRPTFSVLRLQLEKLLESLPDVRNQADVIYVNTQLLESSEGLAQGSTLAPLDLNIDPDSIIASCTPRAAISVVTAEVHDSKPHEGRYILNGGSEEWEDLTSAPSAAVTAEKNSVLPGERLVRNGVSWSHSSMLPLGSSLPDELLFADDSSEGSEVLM

[5] = target: Proto-oncogene tyrosine-protein kinase receptor Ret (Homo sapiens, UniProt P07949); assay: Inhibition of RET (unknown origin)
Chain of Proto-oncogene tyrosine-protein kinase receptor Ret (P07949 whole entry): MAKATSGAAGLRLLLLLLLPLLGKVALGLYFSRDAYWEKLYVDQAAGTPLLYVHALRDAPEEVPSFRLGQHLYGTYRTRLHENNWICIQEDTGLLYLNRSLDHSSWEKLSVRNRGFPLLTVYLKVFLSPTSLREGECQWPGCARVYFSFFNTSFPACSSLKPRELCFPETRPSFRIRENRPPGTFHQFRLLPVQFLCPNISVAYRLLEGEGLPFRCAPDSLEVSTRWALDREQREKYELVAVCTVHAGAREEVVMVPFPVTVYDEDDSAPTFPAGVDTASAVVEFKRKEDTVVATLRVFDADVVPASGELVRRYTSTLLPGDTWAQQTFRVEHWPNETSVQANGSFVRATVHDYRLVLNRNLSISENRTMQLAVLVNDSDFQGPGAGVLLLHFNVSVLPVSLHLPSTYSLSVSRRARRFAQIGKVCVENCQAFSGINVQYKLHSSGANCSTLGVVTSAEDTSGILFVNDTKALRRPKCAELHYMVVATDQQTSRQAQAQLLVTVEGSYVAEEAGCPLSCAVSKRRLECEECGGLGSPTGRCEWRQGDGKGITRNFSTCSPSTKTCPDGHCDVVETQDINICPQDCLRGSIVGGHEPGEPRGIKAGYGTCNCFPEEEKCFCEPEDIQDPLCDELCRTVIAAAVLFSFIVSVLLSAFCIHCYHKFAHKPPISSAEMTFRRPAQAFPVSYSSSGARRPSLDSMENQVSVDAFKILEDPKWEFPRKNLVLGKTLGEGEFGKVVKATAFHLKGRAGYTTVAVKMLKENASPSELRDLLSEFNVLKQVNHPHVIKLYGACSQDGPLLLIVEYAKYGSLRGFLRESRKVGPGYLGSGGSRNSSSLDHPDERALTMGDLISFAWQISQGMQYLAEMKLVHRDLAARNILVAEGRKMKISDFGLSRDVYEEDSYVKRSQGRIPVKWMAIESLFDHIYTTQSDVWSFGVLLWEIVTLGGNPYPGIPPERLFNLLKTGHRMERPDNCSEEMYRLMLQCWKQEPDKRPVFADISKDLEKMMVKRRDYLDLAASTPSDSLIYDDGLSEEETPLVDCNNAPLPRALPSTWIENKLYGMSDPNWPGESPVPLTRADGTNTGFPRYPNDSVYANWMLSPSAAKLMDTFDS

[6] = target: Rho-associated protein kinase 1 (Homo sapiens, UniProt Q13464); assay: Inhibition of ROCK1 (unknown origin)
[7] = target: Tyrosine-protein kinase ITK/TSK (Homo sapiens, UniProt Q08881); assay: Inhibition of ITK (unknown origin)
[8] = target: T2, Receptor tyrosine-protein kinase erbB-4; assay: Inhibition of ERBB4 (unknown origin)
Ephrin type-A receptor 3 = Ephrin type-A receptor 3 (Homo sapiens, UniProt P29320); assay: Inhibition of EPHA3 (unknown origin)
[9] = Inhibition of GSK3 (unknown origin); design: species or system Homo sapiens
[10] = target: Cyclin-dependent kinase 2 (Homo sapiens, UniProt P24941); assay: Inhibition of CDK2 (unknown origin)
[11] = target: 5'-AMP-activated protein kinase catalytic subunit alpha-1 (Homo sapiens, UniProt Q13131); assay: Inhibition of PRKKA1 (unknown origin)
[12] = Metabolic stability in human hepatocytes assessed as hepatic extraction ratio; assay type: ADME, cell-based, Hepatocyte; conditions: read-out: ERH
MDR1 (human) = assay: Permeability across apical to basolateral side in pig LLC-PK1 cells expressing human MDR1; assay type: ADME, cell-based, Sus scrofa; conditions: read-out: permeability
[13] = Aqueous solubility of the compound in JP1 fluid at pH 1.2; assay type: physicochemical
[14] = Aqueous solubility of the compound in JP2 fluid at […]; assay type: physicochemical
[15] = Drug absorption in male Sprague-Dawley rat at 1 mg/kg, […] by LC-MS/MS analysis; assay type: ADME, organism-based; conditions: in vivo, read-out: Drug absorption
[16] = Oral bioavailability in male Sprague-Dawley rat at 5 mg/kg; assay type: ADME, organism-based; conditions: in vivo
[17] = target: Leucine-rich repeat serine/threonine-protein kinase 2 (Homo sapiens, UniProt Q5S007); assay: Inhibition of recombinant human GST-tagged LRRK2 expressed in baculovirus expression system
[18] = target: Ribosomal protein S6 kinase alpha-2 (Homo sapiens, UniProt Q15349); assay: Inhibition of recombinant human full-length GST-tagged RSK3 expressed in insect cells
[19] = target: Serine/threonine-protein kinase D1 (Homo sapiens, UniProt Q15139); assay: Inhibition of recombinant human full-length GST-tagged PKCmu expressed in baculovirus expression system
[20] = target: Ribosomal protein S6 kinase alpha-3 (Homo sapiens, UniProt P51812); assay: Inhibition of recombinant human full-length His-tagged RSK2 expressed in baculovirus expression system
[21] = target: Ribosomal protein S6 kinase alpha-6 (Homo sapiens, UniProt Q9UK32); assay: Inhibition of recombinant human full-length GST-tagged RSK4 expressed in baculovirus expression system
[22] = target: Serine/threonine-protein kinase D2 (Homo sapiens, UniProt Q9BZL6); assay: Inhibition of recombinant human full-length GST-tagged PRKD2 expressed in baculovirus expression system
[23] = target: Casein kinase I isoform gamma-1 (Homo sapiens, UniProt Q9HCP0); assay: Inhibition of CK1gamma1 (unknown origin)
Chain of Casein kinase I isoform gamma-1 (Q9HCP0 whole entry, canonical isoform): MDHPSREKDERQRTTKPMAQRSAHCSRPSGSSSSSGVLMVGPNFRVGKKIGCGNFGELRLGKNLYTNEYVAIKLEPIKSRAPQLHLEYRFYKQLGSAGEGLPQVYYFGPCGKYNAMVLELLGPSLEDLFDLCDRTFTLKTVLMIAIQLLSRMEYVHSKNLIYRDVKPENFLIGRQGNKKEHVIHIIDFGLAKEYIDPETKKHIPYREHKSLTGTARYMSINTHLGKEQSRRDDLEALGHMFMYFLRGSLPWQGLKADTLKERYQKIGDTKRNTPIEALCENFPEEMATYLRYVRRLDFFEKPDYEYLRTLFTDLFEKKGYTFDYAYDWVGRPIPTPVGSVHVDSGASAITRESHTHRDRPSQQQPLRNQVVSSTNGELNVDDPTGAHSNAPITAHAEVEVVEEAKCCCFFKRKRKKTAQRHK

[24] = target: Casein kinase I isoform gamma-3 (Homo sapiens, UniProt Q9Y6M4); assay: Inhibition of CK1gamma3 (unknown origin)
[25] = target: T1, Mitogen-activated protein kinase kinase kinase 5; assay: Inhibition of ASK1 (unknown origin) by cell based assay
[26] = target: T1, Mitogen-activated protein kinase kinase kinase 5; assay: Binding affinity to ASK1 (unknown origin)
Homo sapiens [27] = species on record: Homo sapiens; assay: Selectivity ratio of IC50 for inhibition of recombinant human GST-tagged LRRK2 expressed in baculovirus expression system to IC50 for inhibition of ASK1 (unknown origin)
Homo sapiens [28] = species on record: Homo sapiens; assay: Selectivity ratio of IC50 for inhibition of recombinant human full-length GST-tagged RSK3 expressed in insect cells to IC50 for inhibition of ASK1 (unknown origin)
Homo sapiens [29] = species on record: Homo sapiens; assay: Selectivity ratio of IC50 for inhibition of recombinant human full-length GST-tagged PKCmu expressed in baculovirus expression system to IC50 for inhibition of ASK1 (unknown origin)
Homo sapiens [30] = species on record: Homo sapiens; assay: Selectivity ratio of IC50 for inhibition of recombinant human full-length His-tagged RSK2 expressed in baculovirus expression system to IC50 for inhibition of ASK1 (unknown origin)
Homo sapiens [31] = species on record: Homo sapiens; assay: Selectivity ratio of IC50 for inhibition of recombinant human full-length GST-tagged RSK4 expressed in baculovirus expression system to IC50 for inhibition of ASK1 (unknown origin)
Homo sapiens [32] = species on record: Homo sapiens; assay: Selectivity ratio of IC50 for inhibition of recombinant human full-length GST-tagged PRKD2 expressed in baculovirus expression system to IC50 for inhibition of ASK1 (unknown origin)
Homo sapiens [33] = species on record: Homo sapiens; assay: Selectivity ratio of IC50 for inhibition of CK1gamma1 (unknown origin) to IC50 for inhibition of ASK1 (unknown origin)
Homo sapiens [34] = species on record: Homo sapiens; assay: Selectivity ratio of IC50 for inhibition of CK1gamma3 (unknown origin) to IC50 for inhibition of ASK1 (unknown origin)

IC50 [1]: 0.031 µM
Compound: CC(C)n1cnnc1-c1cccc(NC(=O)C2CN(c3cccnc3)CCO2)n1 (centres undefined)

IC50 [1]: 0.014 µM
pIC50 (MAP kinase p38): < 4.7
IC50 [2]: > 20 µM
IC50 [3]: > 20 µM
IC50 [4]: 0.631 µM
IC50 [5]: 0.0631 µM
IC50 [6]: 1 µM
IC50 [7]: 1.26 µM
IC50 [8]: > 20 µM
IC50 (Ephrin type-A receptor 3): > 20 µM
pIC50 [9]: 7.4
IC50 [10]: 0.0631 µM
IC50 [11]: 0.2 µM
Compound: CC(C)n1cnnc1-c1cccc(N2Cc3ccccc3C2=O)n1

IC50 [1]: 0.13 µM
Compound: CC(C)n1cnnc1-c1cccc(NC(=O)C2CN(c3ccccc3)CCO2)n1 (centres undefined)

IC50 [1]: 0.017 µM
hepatic extraction ratio [12]: 0.32
Papp A→B (MDR1 (human)): 10.7 ×10⁻⁶ cm/s
solubility [13]: > 200 µM
solubility [14]: 101 µM (≈ 43.8 µg/mL)
Fa [15]: 52%
bioavailability [16]: 18%
IC50 [17]: ≤ 0.5 µM
IC50 [18]: ≤ 0.5 µM
IC50 [19]: ≤ 0.5 µM
IC50 [20]: ≤ 0.5 µM
IC50 [21]: ≤ 0.5 µM
IC50 [22]: ≤ 0.5 µM
IC50 [23]: ≤ 0.5 µM
IC50 [24]: ≤ 0.5 µM
EC50 [25]: 0.024 µM
Kd [26]: < 0.001 µM
Ratio IC50 (Homo sapiens [27]): < 20
Ratio IC50 (Homo sapiens [29]): < 20
Ratio IC50 (Homo sapiens [30]): < 20
Ratio IC50 (Homo sapiens [31]): < 20
Ratio IC50 (Homo sapiens [32]): < 20
Ratio IC50 (Homo sapiens [33]): < 20
Ratio IC50 (Homo sapiens [34]): < 20
Compound: CC(C)n1cnnc1-c1cccc(NC(=O)[C@H]2CN(c3ccc(C4CC4)nc3)CCO2)n1
Ratio IC50 (Homo sapiens [28]): < 20

IC50 [1]: 0.002 µM
Compound: CC(C)n1cnnc1-c1cccc(NC(=O)C2CN(C)CCO2)n1 (centres undefined)

IC50 [1]: 0.27 µM
pIC50 (MAP kinase p38): < 4.7
IC50 [2]: > 20 µM
IC50 [3]: > 20 µM
IC50 [4]: > 20 µM
IC50 [5]: > 20 µM
IC50 [6]: > 20 µM
IC50 [7]: > 20 µM
IC50 [8]: > 20 µM
IC50 (Ephrin type-A receptor 3): > 20 µM
pIC50 [9]: 6.2
IC50 [10]: 3.16 µM
IC50 [11]: > 20 µM
Compound: CC(C)n1cnnc1-c1cccc(NC(=O)C2CCCCO2)n1 (centres undefined)
